Results from US10196373B2, “Substituted 2-hydroxy-4-(2-(phenylsulfonamido)acetamido)benzoic acid analogs as inhibitors of STAT protein” (University of Central Florida Research Foundation, Inc., priority 2010, dated 2019).

Columns and labels:
Format in all cases: cell-based
OCI-AMI.2 cells = assay: Cell viability, MTS assay
HL60 cells = assay: Cell viability, MTS assay; details: Homo sapiens, HL-60, HL60, 72 hours
Protocol: (§1) To further test activity of these molecules, a whole-cell study involving cancer lines with known abherrant STAT3 expression was conducted. These human cell lines, including prostate cancer (DU145), breast cancer (MDA468), and promyelocytic leukemia (HL-60) were treated with the peptidomimetics and incubated for 72 hours. Disruption of cell viability was measured by MTS assay and IC50 values for the potential inhibitors was determined. OriginPro 8 (Northampton, Mass.) was used to evaluate EC50 using the dose response curve defined as follows:
(§2) [formula] where y is the fraction of death, x is the log of drug concentration. A2 is the top asymptote, A1 is the bottom asymptote, logx0 is the center of the curve, and p is the hill slope.

DU-145 cells = assay: Cell viability, MTS assay; details: Homo sapiens, DU-145, 72 hours
Protocol: as §1, §2

MDA-468 cells = assay: Cell viability, MTS assay; details: Homo sapiens, MDA-468, 72 hours
Protocol: as §1, §2

MV-4-11 cells = assay: Cell viability in cell lines with constitutive activation of STAT5 (Almar Blue); details: Homo sapiens, MV4-11
Protocol: (§3) To determine whether STAT5 inhbitors could be cytotoxic in cell lines that have constitutive activation of STAT5, the cell lines K562 and MV-4-11 were cultured at concentration 1×10^5, to insure that the cells are at the exponential stage of growth, and treated with the different synthesized molecules at concentrations of 10, 20 and 40 μM. Viability were determined using Almar Blue (Invitrogen) in 96-well plate over 3 consecutive days. Fluorescence was quantified using Spectra Max M5 (Molecular Devices).

K562 cells = assay: as above; details: Homo sapiens
Protocol: as §3

| SMILES | IC50 (OCI-AMI.2 cells) [µM] | IC50 (HL60 cells) [µM] | IC50 (DU-145 cells) [µM] | IC50 (MDA-468 cells) [µM] | IC50 (MV-4-11 cells) [µM] | IC50 (K562 cells) [µM] |
| --- | --- | --- | --- | --- | --- | --- |
| Cc1cc(C)c(S(=O)(=O)N(C)CC(=O)N(Cc2ccc(C3CCCCC3)cc2)c2ccc(C(=O)O)c(O)c2)c(C)c1 [Compound 45b, 4-(N-(4-cyclohexylbenzyl)-2-(N,2,4,6-tetramethylphenylsulfonamido)acetamido)-2-hydroxy-benzoic acid] | 65.4 ± 13 | 40.4 ± 20.2 | 44.5 ± 16 | 22.6 ± 8.3 | > 80 | 80 ± 18 |
| CN(CC(=O)N(Cc1ccc(C2CCCCC2)cc1)c1ccc(C(=O)O)c(O)c1)S(=O)(=O)c1ccc(-c2ccccc2)cc1 [Compound 45c, 4-(N-(4-cyclohexylbenzyl)-2-(N-methylbiphenyl-4-ylsulfonamido)acetamido)-2-hydroxy-benzoic acid] | 95.4 ± 33.7 | 74.8 ± 28.2 | 80 ± 31.6 | 47.4 ± 6.2 | 17 ± 1 | 42 ± 16 |
